# How the values were obtained:
# [1] = target: T1, pro-MMP-9 (Homo sapiens, UniProt P14780); assay: Phage binding to pro-MMP-9 with competitors; details: competitor peptides 20 μM, gelatin 2.5 μg/ml
# Method: Phage display. Phage display selections were made using random peptide libraries CX7-10C and X9-10 (13). Purified human pro-MMP-9 (9) or recombinant MMP-9 C domain (2 μg/ml) was immobilized on microtiter wells and the wells were blocked with BSA. The phage were added in 50 mM Hepes (pH 7.5)/5 mM CaCl2/1 μM ZnCl2/150 mM NaCl/2% BSA. After three rounds of selection the phage sequences were determined (14). The phage binding specificity was tested with pro-MMPs or the recombinant domains (20 ng/well). The phage (10^8 transducing units/well) were allowed to bind in the absence or presence of competitor peptides (20 μM), gelatin (2.5 μg/ml) or TIMP-1 (2.5 μg/ml, Calbiochem) followed by washings with PBS/0.05% Tween20 (PBST). The phage were detected with a peroxidase-conjugated anti-phage antibody (Amersham Biosciences).
# [2] = target: T2, CBD (Homo sapiens, UniProt P14780); assay: Gelatin binding to immobilized CBD; details: biotinylated gelatin
# T2 construct: CBD (amino acids Gly^204-Gly^373) was amplified from MMP-9 cDNA; made in house; host or cells: E. coli
# Method: Gelatin and CBD binding assays. Recombinant CBD or human plasma fibronectin (Calbiochem) (0.2 μg/ml in TBS) was immobilized in microtiter wells. The wells were saturated with 1% BSA-PBST. Biotinylated gelatin (0.2 μg/ml in 1% BSA-PBST) was added with or without peptides at the concentrations indicated or with an excess of unlabelled gelatin (10 μg/ml) and allowed to bind for 1 h. Bound gelatin was detected with streptavidin-peroxidase. CBD binding to immobilized fibronectin, the 110-kDa fragment of fibronectin (Upstate Biotechnology) or urea-denaturated human plasma vitronectin (17) (1 μg/well) was studied using biotinylated CBD (5 μg/ml) in 1% BSA-PBST in the presence or absence of 20 μM peptides.
# [3] = target: T3, MMP-9 C domain (Homo sapiens, UniProt P14780); assay: Dimerization of the MMP-9 C domain; type: binding; details: 125I-labelled C domain on unlabelled C domain
# T3 construct: MMP-9 (Asp^494-Asp^688) were expressed as described (16); made in house; host or cells: E. coli (β5 fragment)
# T3 sequence (P14780 513-707 limits assumed): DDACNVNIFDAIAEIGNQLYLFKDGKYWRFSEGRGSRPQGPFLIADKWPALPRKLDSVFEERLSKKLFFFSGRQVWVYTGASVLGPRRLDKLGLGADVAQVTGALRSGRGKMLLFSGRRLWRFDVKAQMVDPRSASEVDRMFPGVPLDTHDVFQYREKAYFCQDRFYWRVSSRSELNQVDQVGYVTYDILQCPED
# Method: Dimerization of the MMP-9 C domain. Recombinant C domain or CBD at a 5 μg/ml concentration in PBS were coated on microtiter wells followed by blocking with 1% BSA-PBST. ^125I-labelled C domain was preincubated with the peptides for 30 minutes in 1% BSA-PBST and then added to the wells. After a 2 hour incubation, the wells were washed. Bound radioactivity was eluted with 1% SDS and measured with a gamma-counter.
# [4] = test system: HT1080 cells; assay: Pericellular proteolysis (gelatinolysis) of HT1080 cells; type: cell-based, human; details: HT1080, 48 h, PDBu, fibronectin/FITC-labelled gelatin coating
# Method: Pericellular proteolysis. Microtiter wells were coated with a mixture of fibronectin (10 μg/ml) and FITC-labelled gelatin (100 μg/ml) followed by saturation with 1% BSA in PBS. HT1080 cells (50 000 in 100 μl 0.1% BSA/DMEM) were incubated in the presence of 20 nM PDBu (4β-phorbol-12,13-dibutyrate, SigmaAldrich) and the peptides or the MMP-2/MMP-9 selective inhibitor InhI (Calbiochem). As a control non-activated cells and medium without the cells were used. Gelatinolysis after 48 hours was measured as the increase of fluorescence from a 50 μl aliquot of the conditioned medium using Wallac Victor^2 reader.
# [5] = target: αM integrin I domain (Homo sapiens, UniProt P11215); assay: Pro-MMP-9 binding to αM integrin I domain
# Method: Pro-MMP-9 and gelatin binding to leukocyte αM integrin. Pro-MMP-9 binding to the αM I domain in the presence of peptides was studied as described (12). Gelatin binding to the pro-MMP-^9/αMβ2 integrin complex was studied by immobilizing the integrin αMβ2 (12) or αIIbβ3 as a control (Enzyme Research Laboratories, South Bend, Ind.) (1 μg/well) in TBS/1 mM CaCl2/1 mM MgCl2 followed by saturation of the wells with 1% BSA in PB ST. Pro-MMP-9 (100 ng/well) was incubated for 2 h and the unbound pro-MMP-9 was washed away. Biotinylated gelatin (2.5 μg/ml) was allowed to bind for 30 min at room temperature. Bound gelatin was detected with streptavidin-peroxidase.
# [6] = test system: pro-MMP-2; assay: Pro-MMP-2 activation in HT1080 cells, zymography; type: cell-based, human; details: PDBu-activated HT1080, peptides 200 μM
# Method: (§1) Activation of MMP-9. THP-1 cells (40 000/100 μl) or confluent HT1080 cells were incubated for 16 h in the presence or absence of 2.5 μg/ml plasminogen, 0.5 μg/ml pro-MMP-3 (Oncogene Research Products), 40 nM PDBu, and the peptides at a 200 μM concentration unless otherwise indicated. Aliquots of the conditioned media were analyzed by gelatin zymography (9). […] The samples were analyzed by gelatin zymography.
# [7] = target: T1, pro-MMP-9; assay: Pro-MMP-9 activation in THP-1 cells, zymography; type: cell-based; details: THP-1, pro-MMP-3 and plasminogen, peptides 200 μM
# Method: as §1
# [8] = target: T1, pro-MMP-9; assay: Activation of purified pro-MMP-9 by MMP-3 in vitro; type: biochemical; details: 200 μM, 1 h, 37° C.
# [9] = test system: HT1080 cells; assay: HT1080 cell adhesion to vitronectin or fibronectin; type: cell-based, human; details: proteins 40 μg/ml, CRV peptide 200 μM
# Method: Cell adhesion. HT1080 cells were allowed to adhere on vitronectin or fibronectin (2 μg/ml) in the presence or absence of peptides (200 μM), proteins (40 μg/ml) or a monoclonal anti-αvβ5 integrin antibody P1F6 (Chemicon) or a control antibody (25 μg/ml). The adhesion was quantified as described (14). Adhesion of THP-1 cells to immobilized KIM127 or control monoclonal antibodies (2 μg/ml) was done in the presence or absence of soluble proteins (50 μg/ml) or antibodies (25 μg/ml).
# [10] = test system: HSC-3 tongue squamous cell carcinoma xenografts; assay: Tumor growth in vivo, HSC-3 xenografts
# Method: Tumor growth in vivo. […] HSC-3 tumors were established by administering 5×10^6 tumor cells in a 100 μl volume in PBS in both flanks of the Hsd:Athymic Nude-nu mice. After three days, the mice received five daily injection of 0.8 mg/ml CRV or the scrambled peptide or the vehicle (PBS) via the tail vein in a 200 μl volume. Three-dimensional caliper measurements were taken twice a week and the tumor volumes calculated. Mice were sacrificed when the tumor volume reached 1000 mm^3. For the staining of the tumor vasculature, 7 μm frozen tissue sections were stained with anti-CD31 antibody (MEC 13.3, BD Biosciences) and anti-rat Alexa Fluor 488 antibodies.
# T1 sequence (P14780 20-707 limits assumed): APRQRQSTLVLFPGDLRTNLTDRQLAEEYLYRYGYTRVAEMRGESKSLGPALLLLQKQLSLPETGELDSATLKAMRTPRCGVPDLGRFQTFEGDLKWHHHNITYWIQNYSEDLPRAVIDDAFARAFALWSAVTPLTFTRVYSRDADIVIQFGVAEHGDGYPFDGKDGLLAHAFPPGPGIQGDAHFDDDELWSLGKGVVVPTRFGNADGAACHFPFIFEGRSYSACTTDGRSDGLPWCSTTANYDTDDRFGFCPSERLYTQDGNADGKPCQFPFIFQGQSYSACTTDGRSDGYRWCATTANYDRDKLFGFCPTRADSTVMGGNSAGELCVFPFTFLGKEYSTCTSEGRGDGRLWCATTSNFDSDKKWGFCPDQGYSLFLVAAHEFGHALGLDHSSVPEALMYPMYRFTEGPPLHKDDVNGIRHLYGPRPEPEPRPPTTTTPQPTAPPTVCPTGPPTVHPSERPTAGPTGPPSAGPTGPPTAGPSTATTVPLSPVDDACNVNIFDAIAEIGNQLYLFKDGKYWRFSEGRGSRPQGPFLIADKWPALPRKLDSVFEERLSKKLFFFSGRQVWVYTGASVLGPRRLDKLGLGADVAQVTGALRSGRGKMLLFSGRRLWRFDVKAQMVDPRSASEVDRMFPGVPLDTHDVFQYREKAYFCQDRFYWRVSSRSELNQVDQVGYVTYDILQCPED
# T2 sequence (P14780 223-392 limits assumed): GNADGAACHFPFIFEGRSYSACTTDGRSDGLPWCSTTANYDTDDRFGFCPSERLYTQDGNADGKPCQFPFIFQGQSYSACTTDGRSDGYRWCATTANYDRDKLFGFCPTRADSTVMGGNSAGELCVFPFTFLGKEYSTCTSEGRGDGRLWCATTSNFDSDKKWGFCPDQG
# Sequence of αM integrin I domain (P11215 150-328 limits assumed): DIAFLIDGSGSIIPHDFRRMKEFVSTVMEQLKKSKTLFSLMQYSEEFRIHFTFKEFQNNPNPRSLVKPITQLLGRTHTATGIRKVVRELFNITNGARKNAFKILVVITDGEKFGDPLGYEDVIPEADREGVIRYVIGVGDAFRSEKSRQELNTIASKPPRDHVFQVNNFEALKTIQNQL
sequence,measurement,setting,value
CRVYGPYLLC,"Binding of PPC peptide-bearing phage to pro-MMP-9, competition",[1],not
same,"Binding of the CRV-phage to pro-MMP-9, competition",[1]; TIMP-1 2.5 μg/ml,inhibited
same,Inhibition of gelatin binding to immobilized CBD,[2],not
same,Inhibition of dimerization of the C domain,[3],inhibited
same,Inhibition of pericellular gelatinolysis,[4],inhibited
same,Effect on interaction of MMP-9 with the leukocyte αM integrin I domain,[5],do not affect
same,Inhibition of activation of pro-MMP-2,[6],partially
same,Effect on pro-MMP-9 activation,[7],blocked
same,Inhibition of activation of purified pro-MMP-9 by MMP-3,[8],did not inhibit
same,Inhibition of HT1080 cell adhesion to vitronectin or fibronectin,[9],Neither
same,Survival of the mice,[10]; after two months,all five CRV-injected mice were alive
same,Inhibition of tumor growth,"[10]; at 31 days, five daily i.v. injections, vs scrambled peptide or PBS",statistically significant inhibition of tumor growth
same,"Kaplan-Meier survival, Log-Rank test p vs. PBS","[10]; mouse, in vivo",0.002
same,"Kaplan-Meier survival, Log-Rank test p vs. scrambled CRV","[10]; mouse, in vivo",0.003
same,"Tumor vasculature, CD31 immunostaining","[10]; mouse, in vivo",less developed tumor vasculature

# From patent publication US20070207967A1, “Peptide Inhibitors of Matrix Metalloproteinase Activity” (CTT CANCER TARGETING TECHNOLOGIES OY, priority 2004, published 2007)
